# Assay results: patent US10532065B2, “Bisphosphonic acid derivative and application for same” (NAGASAKI UNIVERSITY, priority 2014, dated 2020)
# “Also recorded” adds a separate entry of the source. Like-named read-outs stand apart in the source and are kept apart here.
# Assays:
# EJ-1 cells / γδ T cells = experiment: TNF-α production from γδ T cells stimulated by compound-pretreated EJ-1 cells (indirect antitumor action, ELISA); type: cell-based; details: for EC50: EJ-1 pretreated 4 hr with compound, 16 hr with γδ T cells, TNF-α ELISA, read-out: TNF-α50
# Outline: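 EJ-1 cells exposed 4 h at 37 °C to 10-fold serial dilutions (POM esters from 20 µM, bisphosphonic acids from 200 µM), washed three times, then co-cultured with γδ T cells. Supernatant TNF-α measured by ELISA against a standard curve, in triplicate; TNF-α50 = […].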
# [1] = tested on: farnesyl diphosphate synthase (geranylgeranylation of Rap1A); experiment: Rap1A geranylgeranylation inhibition in tumor cells (Western blotting); type: cell-based; details: non-geranylgeranylated Rap1A, 16 hr, various tumor cell lines (FIG. 9)
# Text: To verify this mechanism, whether the farnesyl diphosphate synthase is inhibited in the cell needs to be confirmed. If farnesyl diphosphate synthase is inhibited, intracellular concentration of geranylgeranyl diphosphate decreases, and geranylgeranylation of Rap1A small G protein is inhibited. The inhibitory effect thereof is clarified by quantifying the inhibition of geranylgeranylation of Rap1A. […] As the tumor cells, MOLT-3, PEER, C1R, J.RT3-T3.5, Raji, RAMOS-RA1, MOLT-4, HL60, U937, THP-1, SCC-3, P31/FUJ, K562, NOMO-1, YMB-1-E, MRK-nu-1, HMC-1-8, MCF-7, MDA-MB-231, T-47D, SK-BR-3, 786-0, VMRC-RCZ, UOK121, Caki-1, A-704, BxPC-3, KP4-1, KP4-2, KP4-3, MiaPaCa-2, TGBC24TKB, ACS, MG-63, LK-2, EJ-1 were used. […] Thereto was added 10 mM stock solution of compound 7 to a final concentration of 10 μM, 1 μM, 100 nM, 10 nM, 1 nM, 100 pM, 10 pM, 1 pM. These flasks were cultured at 37° C. under 5% CO2 atmosphere for 16 hr. Non-adherent cells were left unattended, and adherent cells were recovered using EDTA/trypsin solution. […] The supernatant was removed, and suspended in cell lysis solution (100 μl) composed of 1% NP-40, 0.1% SDS, 0.5% sodium deoxycholate. […]
# To quantitatively analyze the inhibitory efficiency thereof, the concentration of a compound that inhibits geranylgeranylation of Rap1A by half was calculated as EC50 value and studied by comparison. […]
# [2] = tested on: γδ T cells in peripheral blood mononuclear cells of a healthy adult; details: healthy adult PBMC, 1 μM, IL-2, 14 days of culture
# Procedure: Mononuclear cells were obtained by the specific gravity centrifugation method from the peripheral blood of a healthy adult. The obtained mononuclear cells were suspended in Yssel medium at 1.8×10^6 cells/ml, and seeded by 1.5 ml in each well of a 24-well plate. Compound 7 was added to each well at a concentration of 1 μM, and cultured at 37° C. under 5% CO2 atmosphere. After one day of culture, IL-2 was added at a concentration of 100 IU/ml, and the cells were cultured in the presence of 100 IU/ml IL-2 thereafter up to day 6, and cultured in the presence of 30 IU/ml IL-2 from day 7. After 14 days of culture, the cells were recovered, and cell surface molecule was analyzed by flow cytometry using labeled anti-CD3 antibody and labeled anti-Vδ2 antibody. As a control, an antibody having the same isotype as anti-CD3 antibody and anti-Vδ2 antibody but irrelevant thereto was used. The ratio (%) of γδ T cells having the Vδ2 region in CD3 cells was determined.
EC50 (EJ-1 cells / γδ T cells; EJ1),Compound,EC50 (EJ-1 cells / γδ T cells),"TNF-α production induction activity (in words) (EJ-1 cells / γδ T cells; EJ-1 pretreated with compound, γδ T cells)",farnesyl diphosphate synthase inhibitory action in cells (in words) [1],ratio (%) of γδ T cells having the Vδ2 region in CD3 cells [2]
,"CC(C)(C)C(=O)OCOP(=O)(OCOC(=O)C(C)(C)C)C(CNc1nccs1)P(=O)(OCOC(=O)C(C)(C)C)OCOC(=O)C(C)(C)C [Compound 7, tetrakispivaloyloxymethyl 2-(thiazol-2-ylamino) ethylidene-1,1-bisphosphonate]",0.06 µM,high activity,"inhibits efficiently, in any tumor cells, farnesyl diphosphate synthase; also recorded: high farnesyl diphosphate synthase inhibitory action in lymphatic tumor cells and myeloidic tumor cells",99.8%
68 µM,"O=P(O)(O)C(CNc1nccs1)P(=O)(O)O [Compound 14, 2-(thiazol-2-ylamino)ethylidene-1,1-bisphosphonic Acid, reference compound]",,,,
